In patent US20240116921A1, “LACTAM (HETERO)[…] DERIVATIVES AS INHIBITORS OF ERBB2” (EnLiven Therapeutics, Inc., priority 2020, published 2024):

What was measured:
[1] = target: T1, phosphorylated EGFR (pEGFR) (Homo sapiens, UniProt P00533); assay: Detection of phosphorylated EGFR (pEGFR) in EGF-stimulated A431 cells; type: cell-based; details: A431 cells (10% FBS), 4 hours incubation, EGF 30 ng/mL 10 minutes, AlphaLISA
T1 construct: performed to measure phosphorylated EGFR levels using A431 cells (10% FBS); endogenous in cells; host or cells: A431
Protocol: Enzyme-linked immunosorbent assays (ELISA) were performed to measure phosphorylated EGFR levels using A431 cells (10% FBS). A431 (1.0*10^4 cells/40 μl/well) cells were seeded in 384 well. Compounds were dissolved in DMSO, serially diluted in DMSO and then were added, mixed, and incubated for 4 hours at 37° C., 5% CO2. Following the 4-hours incubation, cells were stimulated for 10 minutes with EGF (Invitrogen, cat #PHG0311) at a final concentration of 30 ng/mL in the incubator. The media was aspirated and cells were lysed in 10 μL lysis buffer with protease and phosphatase inhibitors (PerkinElmer, cat #ALSU-PEGFR-A50K). The plates were placed on a shaker for 5 minutes and then incubated for 30 min at 4° C. for complete lysis. The lysate was transferred to an Optiplate (Perkin Elmer, cat #6007290).
Acceptor mix (PerkinElmer, cat #ALSU-PEGFR-A50K) was prepared just before use and 5 μL was dispensed to all the wells, followed by a 1.5-2 h incubation at room temperature in dark. The donor mix (PerkinElmer, cat #ALSU-PEGFR-A50K) was prepared under low light conditions prior to use and […] of donor mix was added to all the wells under subdued lighting or green filters. The plates were placed on a shaker for 5 min, sealed, and incubated overnight at room temperature in dark. Plates were read on the Envision (PerkinElmer) using standard AlphaLISA settings.
The percentage of inhibition on EGFR phosphorylation was calculated following equation: % Inhibition=100×(LumHC−LumSample)/(LumHC−LumLC). The low and high controls (LC/HC) are generated from lysate from wells with cells treated with DMSO or […] Staurosporine (BioAustralis, cat #BIA-S1086), […]. IC50 values were calculated by fitting the Curve using XLfit (v5.3.1.3), equation 201: Y=Bottom+(Top−Bottom)/(1+10^((Log IC50−X)*HillSlope)).

[2] = target: T2, phosphorylated ERBB2 (pERBB2) (Homo sapiens, UniProt P04626); assay: Detection of phosphorylated ERBB2 (pERBB2) by ELISA in BT-474 cells; type: cell-based; details: four hours incubation
T2 construct: endogenous in cells; host or cells: BT-474
Protocol: BT-474 cells were seeded into a 96-well at 2.0*10^4 cells/100 μl/well.
Compounds were dissolved and serially diluted in DMSO. The compounds were then were added, mixed, and incubated for four hours at 37° C., 5% CO2. Compounds were added using four-fold dilutions at final concentrations ranging from 10 μM to 0.01 nM.
Following the four hour incubation with compounds, cell lysates were prepared.
Plates were centrifuged for 5 min at 3000 RPM, and supernatant was removed from each well. Cells were washed 3 times by resuspension in 150 μl PBS, followed by centrifugation and removal of the supernatant, as above. […] Cells were incubated with lysis buffer for 1 hour at 4° C., and then stored at −80° C.
Enzyme-linked immunosorbent assays (ELISA) were performed to measure phosphorylated ERBB2 levels. […] The next day, plates were washed with PBS+0.05% Tween20 (PBST). 150 μl of 5% BSA blocking solution was added for 1 hour at room temperature, with shaking. Plates were washed with PBST. Cell lysates were thawed and 100 μl of lysate was added to the ELISA plate. The plates were incubated for 2 hours at room temperature, with shaking. […] Plates were incubated for 1 hour at room temperature, with shaking. Plates were then washed with PBST, and 100 μl TMB substrate solution (R&D Systems, cat #DY999) was added. Plate were incubated in the dark for 20 minutes at room temperature. 50 μl of Stop solution (R&D Systems, cat #DY994) (50 μl) was added to each well and mixed.
Optical density at 450 nm was read on an EnSpire plate reader (Perkin Elmer). The remaining kinase activity by calculated using the following formula: % Relative activity=100×(A450sample−A450LC)/(A450HC−A450LC). The low and high control values (“LC” and “HC”) were generated from lysate from wells without cells or with cells treated with 0.1% DMSO, respectively.

[3] = target: Ba/F3 ERBB2 A775_G776insYVMA (Homo sapiens, UniProt P04626, DUP772-775, cells depend on it); assay: Cell viability assay, Ba/F3 ERBB2 A775_G776insYVMA; type: cell-based, mouse; details: Ba/F3 ERBB2 YVMA cells, cell viability, 72 hours, CellTiter Glo; Table B5; read-out: Ba/F3 ERBB2 YVMA, IC50
Protocol: Cells were treated with compounds, and cell viability was measured as a metric of kinase inhibition.
The Ba/F3 cell line is IL-3-dependent mouse cell line derived from the C3H mouse strain. Ba/F3 cell lines were engineered to express human ERBB2 or EGFR kinases, rendering the cells IL-3 independent. The lines were generated via retroviral transduction utilizing a Moloney murine leukemia virus (MMLV) promoter, and constructs are stably integrated into the cell genome. The sequences of the ERBB2 and EGFR genes used were NCBI Reference Sequences NM_004448.3 and NM_005228.3, respectively.
Similarly, Ba/F3 cell lines engineered to express EGFR, ERBB2, or ERBB2 mutants were grown, harvested, counted and seeded at 3000 cells per well in 96-well plates. A subset of wells contained media only (low control, “LC”).
Table B1 provides the growth media and number of cells seeded per well for the each cell line.
Plates were placed in a 37° C., 5% CO2 incubator for 72 hours. Plates were then removed from the incubator and equilibrated for 15 minutes at room temperature. 40 μl of CellTiter Glo reagent (Promega) was added to measure the relative level of metabolically active cells by quantifying intracellular ATP concentrations. Plates were incubated for 30 minutes at room temperature, and luminescence was measured. […] Graphical curves were fitted using a nonlinear regression model with a sigmoidal dose response.

Chain of Ba/F3 ERBB2 A775_G776insYVMA (P04626 with tags, fused parts or gaps DUP772-775): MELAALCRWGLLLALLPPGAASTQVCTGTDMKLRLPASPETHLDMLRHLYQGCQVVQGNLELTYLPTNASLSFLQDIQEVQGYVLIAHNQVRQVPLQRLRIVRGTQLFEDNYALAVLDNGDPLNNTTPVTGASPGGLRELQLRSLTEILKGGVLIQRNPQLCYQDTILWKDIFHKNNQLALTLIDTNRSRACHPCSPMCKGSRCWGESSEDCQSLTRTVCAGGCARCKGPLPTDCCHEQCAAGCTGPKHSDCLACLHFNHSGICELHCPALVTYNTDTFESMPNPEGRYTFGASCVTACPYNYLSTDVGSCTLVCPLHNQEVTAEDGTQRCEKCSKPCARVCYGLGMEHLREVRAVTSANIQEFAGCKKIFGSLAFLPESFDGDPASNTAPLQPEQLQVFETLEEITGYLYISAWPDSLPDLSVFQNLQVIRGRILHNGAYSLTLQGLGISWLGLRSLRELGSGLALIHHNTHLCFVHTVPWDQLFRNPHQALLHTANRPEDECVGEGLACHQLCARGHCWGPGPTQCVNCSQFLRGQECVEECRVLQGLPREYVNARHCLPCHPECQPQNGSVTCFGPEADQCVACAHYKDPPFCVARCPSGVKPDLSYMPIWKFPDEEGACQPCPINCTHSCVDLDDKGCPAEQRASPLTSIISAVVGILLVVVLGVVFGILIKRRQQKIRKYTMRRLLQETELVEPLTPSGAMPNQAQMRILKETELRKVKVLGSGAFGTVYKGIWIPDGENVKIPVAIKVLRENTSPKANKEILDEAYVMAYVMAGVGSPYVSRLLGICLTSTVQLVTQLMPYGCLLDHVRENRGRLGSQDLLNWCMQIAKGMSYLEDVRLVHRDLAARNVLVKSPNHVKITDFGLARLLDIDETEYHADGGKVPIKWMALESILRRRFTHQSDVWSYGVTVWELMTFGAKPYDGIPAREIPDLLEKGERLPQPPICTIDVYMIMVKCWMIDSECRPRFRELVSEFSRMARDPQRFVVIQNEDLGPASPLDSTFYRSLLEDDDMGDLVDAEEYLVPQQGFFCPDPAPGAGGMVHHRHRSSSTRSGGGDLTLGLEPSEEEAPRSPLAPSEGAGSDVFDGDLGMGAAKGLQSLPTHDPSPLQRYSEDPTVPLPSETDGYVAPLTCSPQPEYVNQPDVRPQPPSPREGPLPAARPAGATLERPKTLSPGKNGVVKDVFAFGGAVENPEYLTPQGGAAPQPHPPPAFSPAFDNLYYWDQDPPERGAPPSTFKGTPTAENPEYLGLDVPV
T2 sequence (P04626 23-1255): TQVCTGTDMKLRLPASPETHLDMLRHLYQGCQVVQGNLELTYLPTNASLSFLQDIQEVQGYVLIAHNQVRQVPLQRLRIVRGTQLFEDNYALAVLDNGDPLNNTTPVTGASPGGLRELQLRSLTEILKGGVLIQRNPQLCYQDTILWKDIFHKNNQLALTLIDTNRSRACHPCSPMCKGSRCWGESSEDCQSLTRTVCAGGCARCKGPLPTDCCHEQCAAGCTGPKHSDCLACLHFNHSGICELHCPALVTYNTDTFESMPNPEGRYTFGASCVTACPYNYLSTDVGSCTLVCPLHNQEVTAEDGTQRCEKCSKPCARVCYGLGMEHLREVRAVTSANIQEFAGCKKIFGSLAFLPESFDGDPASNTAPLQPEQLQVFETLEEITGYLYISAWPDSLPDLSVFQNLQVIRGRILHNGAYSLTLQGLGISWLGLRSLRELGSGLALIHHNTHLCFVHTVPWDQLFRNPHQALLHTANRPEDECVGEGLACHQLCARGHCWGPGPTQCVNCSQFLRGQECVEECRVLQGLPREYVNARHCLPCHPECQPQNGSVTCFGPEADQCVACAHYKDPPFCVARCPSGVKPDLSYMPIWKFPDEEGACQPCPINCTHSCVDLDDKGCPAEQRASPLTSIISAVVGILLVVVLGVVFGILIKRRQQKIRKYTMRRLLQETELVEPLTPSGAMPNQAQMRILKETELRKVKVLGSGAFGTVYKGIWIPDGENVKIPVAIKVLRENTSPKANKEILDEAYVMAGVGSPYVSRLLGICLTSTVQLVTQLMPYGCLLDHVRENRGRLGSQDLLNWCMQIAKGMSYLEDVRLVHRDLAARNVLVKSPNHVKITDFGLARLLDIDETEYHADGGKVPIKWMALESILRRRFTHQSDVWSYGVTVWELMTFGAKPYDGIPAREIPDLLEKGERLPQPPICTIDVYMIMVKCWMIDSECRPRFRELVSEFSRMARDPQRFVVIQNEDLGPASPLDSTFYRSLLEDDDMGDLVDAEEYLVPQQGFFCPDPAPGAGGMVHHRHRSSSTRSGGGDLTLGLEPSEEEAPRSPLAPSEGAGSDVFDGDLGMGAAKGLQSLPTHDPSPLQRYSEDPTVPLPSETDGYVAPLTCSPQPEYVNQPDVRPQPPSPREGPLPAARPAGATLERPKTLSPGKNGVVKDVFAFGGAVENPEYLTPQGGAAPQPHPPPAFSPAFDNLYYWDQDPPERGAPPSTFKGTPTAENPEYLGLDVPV
T1 sequence (P00533 25-1210): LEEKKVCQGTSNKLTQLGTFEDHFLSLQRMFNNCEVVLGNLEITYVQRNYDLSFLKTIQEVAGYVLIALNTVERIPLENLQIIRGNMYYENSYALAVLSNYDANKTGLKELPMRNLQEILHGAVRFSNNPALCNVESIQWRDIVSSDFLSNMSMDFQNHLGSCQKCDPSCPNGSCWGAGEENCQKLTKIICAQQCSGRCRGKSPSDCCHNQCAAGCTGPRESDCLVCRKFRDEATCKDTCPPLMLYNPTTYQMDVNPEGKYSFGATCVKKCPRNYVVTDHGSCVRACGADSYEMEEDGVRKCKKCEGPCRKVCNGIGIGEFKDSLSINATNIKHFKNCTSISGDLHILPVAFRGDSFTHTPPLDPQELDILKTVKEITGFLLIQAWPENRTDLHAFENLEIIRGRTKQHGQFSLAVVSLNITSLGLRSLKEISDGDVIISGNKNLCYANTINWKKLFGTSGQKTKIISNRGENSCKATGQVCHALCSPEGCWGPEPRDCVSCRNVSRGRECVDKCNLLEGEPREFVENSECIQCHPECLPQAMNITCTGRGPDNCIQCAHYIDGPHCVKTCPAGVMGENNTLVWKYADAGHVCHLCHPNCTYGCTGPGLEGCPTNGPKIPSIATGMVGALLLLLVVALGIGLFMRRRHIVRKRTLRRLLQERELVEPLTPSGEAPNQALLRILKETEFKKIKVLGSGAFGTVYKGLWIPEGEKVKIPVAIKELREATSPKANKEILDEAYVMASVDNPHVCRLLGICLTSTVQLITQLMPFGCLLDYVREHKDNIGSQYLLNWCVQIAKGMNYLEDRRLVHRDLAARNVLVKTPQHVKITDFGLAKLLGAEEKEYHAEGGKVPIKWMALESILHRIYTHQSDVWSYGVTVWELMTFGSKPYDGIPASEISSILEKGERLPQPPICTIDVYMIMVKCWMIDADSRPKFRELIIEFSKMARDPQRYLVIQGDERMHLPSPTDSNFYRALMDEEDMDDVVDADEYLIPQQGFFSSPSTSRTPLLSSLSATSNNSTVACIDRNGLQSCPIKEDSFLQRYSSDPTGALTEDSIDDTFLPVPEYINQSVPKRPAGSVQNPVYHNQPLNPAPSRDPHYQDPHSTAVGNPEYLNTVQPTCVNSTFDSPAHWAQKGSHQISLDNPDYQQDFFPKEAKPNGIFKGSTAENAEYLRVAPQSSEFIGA

Row | IC50 [1] | IC50 [2] | SMILES | GI50 [3]
1 | 1140 nM | 18.5 nM | Cc1cc(Nc2ncnc3ccc(N4CC/C(=C\CN(C)C)C4=O)cc23)ccc1Oc1ccc2c(c1)ncn2C [Compound 33, (E)-3-(2-(dimethylamino)ethylidene)-1-(4-((3-methyl-4-((1-methyl-1H-benzo[d]imidazol-5-yl)oxy)phenyl)amino)quinazolin-6-yl)pyrrolidin-2-one] | 15.8 nM
2 | 1090 nM | 23.2 nM | C=C1C(=O)N(c2ccc3ncnc(Nc4ccc(Oc5ccc6c(c5)ncn6C)c(C)c4)c3c2)C2CC12 (single isomer, unassigned) [Example S33, Enantiomer # 1, 2-[4-({3-methyl-4-[(1-methyl-1,3-benzodiazol-5-yl)oxy]phenyl}amino)quinazolin-6-yl]-4-methylidene-2-azabicyclo[3.1.0]hexan-3-one] | 7.57 nM
3 | 476 nM | 12.2 nM | C=C1CCCN(c2ccc3ncnc(Nc4ccc(Oc5ccn6ncnc6c5)c(C)c4)c3n2)C1=O [Compound 95, 1-(4-((4-([1,2,4]triazolo[1,5-a]pyridin-7-yloxy)-3-methylphenyl)amino)pyrido[3,2-d]pyrimidin-6-yl)-3-methylenepiperidin-2-one] | 5.2 nM
4 | > 10000 nM | 425 nM | C=C1CCN(c2nc3c(Nc4ccc(Oc5ccc6c(c5)ncn6C)c(C)c4)ncnc3s2)C1=O [Compound 84, 1-[7-({3-methyl-4-[(1-methyl-1,3-benzodiazol-5-yl)oxy]phenyl}amino)-[1,3]thiazolo[5,4-d]pyrimidin-2-yl]-3-methylidenepyrrolidin-2-one] | 45 nM
5 | 543 nM | 15.4 nM | Cc1cc(Nc2ncnc3ccc(N4C(=O)/C(=C\CN(C)C)C5CC54)nc23)ccc1Oc1ccn2ncnc2c1 (stereo not drawn) [Compound 142, (4Z)-4-[2-(dimethylamino)ethylidene]-2-{4-[(3-methyl-4-{[1,2,4]triazolo[1,5-a]pyridin-7-yloxy}phenyl)amino]pyrido[3,2-d]pyrimidin-6-yl}-2-azabicyclo[3.1.0]hexan-3-one] | 5.8 nM
6 | 1130 nM | 72.3 nM | Cc1cc(Nc2ncnc3ccc(N4CC/C(=C\CN(C)C)C4=O)nc23)ccc1Oc1ccn2c(C)cnc2c1 [Compound 81, (E)-3-(2-(dimethylamino)ethylidene)-1-(4-((3-methyl-4-((3-methylimidazo[1,2-a]pyridin-7-yl)oxy)phenyl)amino)pyrido[3,2-d]pyrimidin-6-yl)pyrrolidin-2-one] | 3.86 nM
7 | > 10000 nM | 20.5 nM | CN(C)C/C=C1\CCN(c2cc3c(Nc4cc(F)c(Oc5ccn6ncnc6c5)cc4F)ncnc3cn2)C1=O [Compound 140, (3E)-1-{4-[(2,5-difluoro-4-{[1,2,4]triazolo[1,5-a]pyridin-7-yloxy}phenyl)amino]pyrido[3,4-d]pyrimidin-6-yl}-3-[2-(dimethylamino)ethylidene]pyrrolidin-2-one] | 78.1 nM
8 | 2320 nM | 11.9 nM | CN(C)C/C=C1\CCN(c2cc3c(Nc4ccc(Oc5ccn6ncnc6c5)c(F)c4)ncnc3cn2)C1=O [Compound 129, (3E)-3-[2-(dimethylamino)ethylidene]-1-{4-[(3-fluoro-4-{[1,2,4]triazolo[1,5-a]pyridin-7-yloxy}phenyl)amino]pyrido[3,4-d]pyrimidin-6-yl}pyrrolidin-2-one] | 19.3 nM
9 | > 10000 nM | 710 nM | CC1CN(c2cc3c(Nc4cc(F)c(Oc5ccc6c(c5)nnn6C)cc4F)ncnc3cn2)C(=O)/C1=C/CN(C)C (single isomer, unassigned) [Example S125, Enantiomer #1, (3E)-1-[4-({2,5-difluoro-4-[(1-methyl-1,2,3-benzotriazol-5-yl)oxy]phenyl}amino)pyrido[3,4-d]pyrimidin-6-yl]-3-[2-(dimethylamino)ethylidene]-4-methylpyrrolidin-2-one] | > 500 nM
10 | > 10000 nM | 6520 nM | C=C1CCN(c2cc3c(Nc4ccc(Oc5ccn6ncnc6c5)c(C)c4)ncnc3cc2OCCN(C)C)C1=O [Compound 56, 1-{7-[2-(dimethylamino)ethoxy]-4-[(3-methyl-4-{[1,2,4]triazolo[1,5-a]pyridin-7-yloxy}phenyl)amino]quinazolin-6-yl}-3-methylidenepyrrolidin-2-one] | > 500 nM
11 | 33.7 nM | 18.2 nM | C=C1C(=O)N(c2ccc3ncnc(Nc4ccc(Oc5ccn6ncnc6c5)c(C)c4)c3c2)CC1COCCN(C)C (single isomer, unassigned) [Example S111, Enantiomer #2, 1-(4-(4-([1,2,4]triazolo[1,5-a]pyridin-7-yloxy)-3-methylphenylamino)quinazolin-6-yl)-4-((2-(dimethylamino)ethoxy)methyl)-3-methylenepyrrolidin-2-one] | 10.8 nM
12 | > 10000 nM | 56.4 nM | Cc1c(Oc2ccc3c(c2)ncn3C)ccc(Nc2ncnc3ccc(N4CC/C(=C\CN(C)C)C4=O)nc23)c1F [Compound 69, (3E)-3-[2-(dimethylamino)ethylidene]-1-[4-({2-fluoro-3-methyl-4-[(1-methyl-1,3-benzodiazol-5-yl)oxy]phenyl}amino)pyrido[3,2-d]pyrimidin-6-yl]pyrrolidin-2-one] | 3.57 nM
13 | 103 nM | 9.9 nM | C=C1C(=O)N(c2cc3c(Nc4ccc(Oc5ccn6ncnc6c5)c(C)c4)ncnc3cn2)C2CC12 (single isomer, unassigned; enantiomer 1) [Example S40, Enantiomer # 1, 2-{4-[(3-methyl-4-{[1,2,4]triazolo[1,5-a]pyridin-7-yloxy}phenyl)amino]pyrido[3,4-d]pyrimidin-6-yl}-4-methylidene-2-azabicyclo[3.1.0]hexan-3-one Enantiomer 1] | 3.47 nM
14 | 2220 nM | 28.9 nM | Cc1cc(Nc2ncnc3ccc(N4CC/C(=C\CN(C)C)C4=O)nc23)ccc1Oc1ccn2ncnc2c1 [Compound 47, (E)-1-(4-((4-([1,2,4]triazolo[1,5-a]pyridin-7-yloxy)-3-methylphenyl)amino)pyrido[3,2-d]pyrimidin-6-yl)-3-(2-(dimethylamino)ethylidene)pyrrolidin-2-one] | 4.08 nM
